# Source: patent US11154529B2, “Phosphaplatin liquid formulations” (Phosplatin Therapeutics Inc., priority 2016, dated 2021)
# Assay: Ready-to-use formulation stability at 25° C./60% RH, 5 mg/mL (R,R)-pyrodach-2 in 10 mM Potassium Phosphate Buffer at pH 7.2, 10 mL vials
# Assay type: physicochemical
# Description: A scalable and commercially viable process for the manufacture of a ready-to-use formulation of (R,R)-pyrodach-2 in 10 mM buffer adjusted to a pH of 7.0-7.5 comprises the steps of: a) preparing a 10 mM aqueous solution of buffer; b) adding sufficient hydroxide base to effect neutralization of the added (R,R)-pyrodach-2 to reach a pH of about 7; c) adding (R,R)-pyrodach-2 and allowing it to dissolve; d) if necessary adding additional hydroxide to adjust the pH into a range of about 7.0-7.5; and e) filtering the solution under sterile conditions, filling the solution into glass vials, and covering it with a stopper and/or a cap. Stability data on two large batches of 5 mg/mL (R,R)-pyrodach-2 in 10 mM potassium phosphate buffer were generated. One such batch at pH=7.2 was evaluated at both 25° C./60% RH and refrigerated (2-8° C.) conditions, with data summarized in Table 4 and Table 5, respectively. […] Similar observations have been made for the ready-to-use liquid formulation at pH7.4, as illustrated in Table 6 and Table 7.
# • Transfer 4564.6 mg±0.5 mg of potassium phosphate dibasic, trihydrate to a 2-L volumetric flask. • Fill flask to approximately 75% volume with water, swirl as needed to dissolve all solids. • Volumetrically transfer 32.0 mL of 1N KOH to flask. • Dilute flask to volume with water and mix well. • Record pH of final solution. This is the diluent. • Transfer 7653.1 mg±0.5 mg of (R,R)-pyrodach-2 to a compounding vessel. • Transfer 1500 mL of the diluent to the vessel and stir to dissolve solids. • Record pH of final solution. • Pass entire solution through a 0.22 μm sterile filter membrane into a sterile collection vessel. • Calculate (R,R)-pyrodach-2 solution concentration
# To a […] glass beaker equipped with mechanical mixer was add 24645.5 g of sterile water for injection. With agitation 47.03 gm of dibasic potassium phosphate USP was added and the solids allowed to dissolve. To the stirred solution was added 253.8 gm of 1.00 N potassium hydroxide. Sterile water for injection USP (900.0 gm) was used as a rinse to facilitate both additions. With vigorous agitation, (R,R)-pyrodach-2 (201.87 gm) was slowly added and agitation continued until all of the solids dissolved. Sterile water for injection USP (900.0 gm) was used as a rinse to facilitate the addition. The pH was determined to be 6.7. A total of 85 mL of 1.00 N potassium hydroxide was added in 5.0 mL aliquots to adjust the pH to 7.3. The solution was sterile filtered through 0.22μ Millipore Millipack filter and aseptically filled, 10 ml top a vial in 10 mL in 10 cc Wheaton clear molded vails, stoppered with a 20 mm stopper and crimp seal capped.
compound,measurement,setting,value
"O=P1(O)OP(=O)(O)[O][Pt]2([NH][C@@H]3CCCC[C@H]3[NH]2)[O]1 (stereo partly drawn) [(R,R)-pyrodach-2, (R,R)-trans-1,2-cyclohexanediamine-(dihydrogenpyrophosphato)platinum(II)]",(DACH) Pt-diaquo (~RRT 0.3),1 Month,0.15%
same,(DACH) Pt-monoaquo (~RRT 0.7),1 Month,0.75%
same,Assay (Potency),1 Month,96.5%
same,PT-112 Dimer (~RRT 4.0),1 Month,0.33%
same,RRT 0.58,1 Month,0.13%
same,RRT 0.67,1 Month,0.06%
same,RRT 3.1-3.2,1 Month,0.22%
same,Total Related Substances,1 Month,2%
same,pH,1 Month,7.2
same,(DACH) Pt-diaquo (~RRT 0.3),2 Month,0.09%
same,(DACH) Pt-monoaquo (~RRT 0.7),2 Month,0.96%
same,Assay (Potency),2 Month,99.5%
same,PT-112 Dimer (~RRT 4.0),2 Month,0.36%
same,RRT 0.50,2 Month,0.05%
same,RRT 0.58,2 Month,0.15%
same,RRT 0.67,2 Month,0.09%
same,RRT 3.1-3.2,2 Month,0.32%
same,RRT 3.65,2 Month,0.08%
same,Total Related Substances,2 Month,2%
same,pH,2 Month,7.2
same,(DACH) Pt-diaquo (~RRT 0.3),3 Month,0.19%
same,(DACH) Pt-monoaquo (~RRT 0.7),3 Month,0.73%
same,Assay (Potency),3 Month,98.2%
same,PT-112 Dimer (~RRT 4.0),3 Month,0.37%
same,RRT 0.50,3 Month,0.08%
same,RRT 0.58,3 Month,0.18%
same,RRT 0.67,3 Month,0.06%
same,RRT 3.1-3.2,3 Month,0.37%
same,RRT 3.65,3 Month,0.11%
same,Total Related Substances,3 Month,2%
same,pH,3 Month,7.3
same,(DACH) Pt-diaquo (~RRT 0.3),4 Month,0.13%
same,(DACH) Pt-monoaquo (~RRT 0.7),4 Month,1.05%
same,Assay (Potency),4 Month,97.9%
same,PT-112 Dimer (~RRT 4.0),4 Month,0.36%
same,RRT 0.50,4 Month,0.09%
same,RRT 0.58,4 Month,0.20%
same,RRT 0.67,4 Month,0.07%
same,RRT 3.1-3.2,4 Month,0.38%
same,RRT 3.46,4 Month,0.05%
same,RRT 3.65,4 Month,0.13%
same,Total Related Substances,4 Month,2%
same,pH,4 Month,7.1
same,(DACH) Pt-diaquo (~RRT 0.3),6 Month,0.15%
same,(DACH) Pt-monoaquo (~RRT 0.7),6 Month,1.03%
same,Assay (Potency),6 Month,97.5%
same,PT-112 Dimer (~RRT 4.0),6 Month,0.37%
same,RRT 0.50,6 Month,0.15%
same,RRT 0.58,6 Month,0.21%
same,RRT 0.67,6 Month,0.07%
same,RRT 0.86,6 Month,0.05%
same,RRT 3.1-3.2,6 Month,0.40%
same,RRT 3.65,6 Month,0.24%
same,RRT 4.97,6 Month,0.05%
same,Total Related Substances,6 Month,3%
same,pH,6 Month,7.2
same,Particulate Matter (Light Obscuration),"6 Month, first value",20 particles particles per container
same,Particulate Matter (Light Obscuration),"6 Month, second value",3 particles particles per container
same,(DACH) Pt-diaquo (~RRT 0.3),9 Month,0.16%
same,(DACH) Pt-monoaquo (~RRT 0.7),9 Month,1.10%
same,Assay (Potency),9 Month,96.8%
same,PT-112 Dimer (~RRT 4.0),9 Month,0.39%
same,RRT 0.50,9 Month,0.19%
same,RRT 0.58,9 Month,0.27%
same,RRT 0.67,9 Month,0.10%
same,RRT 0.86,9 Month,0.05%
same,RRT 3.1-3.2,9 Month,0.30%
same,RRT 3.65,9 Month,0.39%
same,RRT 4.97,9 Month,0.08%
same,Total Related Substances,9 Month,3%
same,pH,9 Month,7.2
same,(DACH) Pt-diaquo (~RRT 0.3),12 Month,0.18%
same,(DACH) Pt-monoaquo (~RRT 0.7),12 Month,0.91%
same,Assay (Potency),12 Month,96.8%
same,PT-112 Dimer (~RRT 4.0),12 Month,0.33%
same,RRT 0.41,12 Month,0.05%
same,RRT 0.50,12 Month,0.26%
same,RRT 0.58,12 Month,0.26%
same,RRT 0.67,12 Month,0.13%
same,RRT 0.86,12 Month,0.05%
same,RRT 3.1-3.2,12 Month,0.44%
same,RRT 3.65,12 Month,0.52%
same,RRT 4.97,12 Month,0.20%
same,Total Related Substances,12 Month,3%
same,pH,12 Month,7.2
same,Particulate Matter (Light Obscuration),"12 Month, first value",36 particles particles per container
same,Particulate Matter (Light Obscuration),"12 Month, second value",2 particles particles per container
same,(DACH) Pt-diaquo (~RRT 0.3),15 Month,0.14%
same,(DACH) Pt-monoaquo (~RRT 0.7),15 Month,0.84%
same,Assay (Potency),15 Month,98.1%
same,PT-112 Dimer (~RRT 4.0),15 Month,0.29%
same,RRT 0.41,15 Month,0.07%
same,RRT 0.50,15 Month,0.37%
same,RRT 0.58,15 Month,0.26%
same,RRT 0.67,15 Month,0.07%
same,RRT 3.1-3.2,15 Month,0.41%
same,RRT 3.65,15 Month,0.63%
same,RRT 4.97,15 Month,0.28%
same,Total Related Substances,15 Month,3%
same,pH,15 Month,7.3
same,(DACH) Pt-diaquo (~RRT 0.3),18 Month,0.14%
same,(DACH) Pt-monoaquo (~RRT 0.7),18 Month,1.04%
same,Assay (Potency),18 Month,99.0%
same,PT-112 Dimer (~RRT 4.0),18 Month,0.30%
same,RRT 0.41,18 Month,0.06%
same,RRT 0.50,18 Month,0.36%
same,RRT 0.58,18 Month,0.29%
same,RRT 0.67,18 Month,0.11%
same,RRT 0.86,18 Month,0.14%
same,RRT 3.1-3.2,18 Month,0.40%
same,RRT 3.65,18 Month,0.75%
same,RRT 4.97,18 Month,0.43%
same,Total Related Substances,18 Month,4%
same,pH,18 Month,7.2
same,(DACH) Pt-diaquo (~RRT 0.3),24 Month,0.15%
same,(DACH) Pt-monoaquo (~RRT 0.7),24 Month,0.83%
same,Assay (Potency),24 Month,97.5%
same,PT-112 Dimer (~RRT 4.0),24 Month,0.36%
same,RRT 0.41,24 Month,0.12%
same,RRT 0.46,24 Month,0.10%
same,RRT 0.50,24 Month,0.70%
same,RRT 0.58,24 Month,0.17%
same,RRT 0.67,24 Month,0.07%
same,RRT 3.1-3.2,24 Month,0.41%
same,RRT 3.46,24 Month,0.07%
same,RRT 3.65,24 Month,1.24%
same,RRT 4.97,24 Month,0.73%
same,Total Related Substances,24 Month,5%
same,pH,24 Month,7.2
same,Particulate Matter (Light Obscuration),"24 Month, first value",81 particles particles per container
same,Particulate Matter (Light Obscuration),"24 Month, second value",4 particles particles per container
same,(DACH) Pt-diaquo (~RRT 0.3),Initial,0.16%
same,(DACH) Pt-monoaquo (~RRT 0.7),Initial,0.98%
same,Assay (Potency),Initial,99.8%
same,PT-112 Dimer (~RRT 4.0),Initial,0.19%
same,RRT 0.58,Initial,0.13%
same,RRT 0.67,Initial,0.05%
same,Total Related Substances,Initial,2%
same,pH,Initial,7.2
same,Particulate Matter (Light Obscuration),"Initial, first value",219 particles particles per container
same,Particulate Matter (Light Obscuration),"Initial, second value",11 particles particles per container
